The values that follow come from ChEMBL document CHEMBL1201862, “PubChem BioAssay data set” (2004).

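Exposure lasted 48 hours, with cells grown in 96-well plates and compounds tested at five concentrations. Abbreviation: GI50, concentration required for 50% inhibition of growth.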 The source made the active and inactive calls. Rule as the data show it: active = GI50 up to about 1.1 µM and inactive = higher. A value given as a limit tells only on which side of the number the result lay.

Some test systems named below: OVCAR-5; OVCAR-4; HCC 2998; SF-295; NCI-H522; ACHN; OVCAR-3; MDA-MB-435; UACC-257; IGROV-1; UO-31; M14; OVCAR-8; NCI-H23; KM12; SK-OV-3; MCF7; TK-10; MDA-MB-231; RPMI-8226.
Assay in all cases: DTP human tumour cell line panel, 48 h

As usually defined, the GI50 is the concentration at which growth is held to half of that of the control. On to `CCOS(C)(=O)=O` [METHANESULFONIC ACID ETHYL ESTER], for which the GI50 with OVCAR-5, with OVCAR-4, in the experiment with HCC 2998, with SF-295, with NCI-H522 and with ACHN was > 100 µM (inactive) in each case. Besides, the GI50 in the experiment with OVCAR-3, in the experiment with MDA-MB-435, with UACC-257, in the experiment on IGROV-1, in the experiment on UO-31 and with M14 was > 100 µM (inactive) each time. For the same compound, the GI50 in the experiment with OVCAR-8, in the experiment on NCI-H23, in the experiment with KM12, in the experiment with SK-OV-3, in the experiment with MCF7 and with TK-10 was > 100 µM (inactive) throughout. For the same compound, the GI50 in the experiment on MDA-MB-231 was > 100 µM (inactive).

For `COc1ccc(/N=C2/C(=N/c3ccc(OC)cc3)N(c3ccccc3)C(=S)N2N=C=C2Sc3ccccc3N2C)cc1`, the GI50 with OVCAR-5, in the experiment with HCC 2998, in the experiment on SF-295, in the experiment on NCI-H522, in the experiment with ACHN and in the experiment on OVCAR-3 was > 100 µM (inactive) in each case. Further, the GI50 in the experiment with MDA-MB-435 is > 100 µM (inactive); in the experiment on UACC-257, > 100 µM (inactive); with RPMI-8226, > 100 µM (inactive); with IGROV-1, > 100 µM (inactive); in the experiment with UO-31 it was > 100 µM (inactive); in the experiment with M14, 57.4 µM (inactive). For the same compound, the GI50 in the experiment with OVCAR-8 was > 100 µM (inactive); with NCI-H23, 9.27 µM (inactive); with KM12, > 100 µM (inactive); in the experiment on SK-OV-3 it was > 100 µM (inactive); in the experiment on MCF7, > 100 µM (inactive); in the experiment on TK-10 it was 32.1 µM (inactive). Also, in the experiment on MDA-MB-231, the GI50 was 25.5 µM (inactive).

With `CCCC(=O)NC1CCc2cc(OC)c(OC)c(OC)c2-c2ccc(OC)c(=O)cc21` (stereo not drawn), the GI50 in the experiment on OVCAR-5 is 0.00312 µM (active); with HCC 2998, 0.00186 µM (active); with SF-295, 0.000512 µM (active); in the experiment on NCI-H522, 0.000442 µM (active); with ACHN, 0.019 µM (active); in the experiment on OVCAR-3, 0.000384 µM (active). The GI50 is 0.000296 µM (active) with MDA-MB-435; 0.01 µM (active) with RPMI-8226; 0.000828 µM (active) in the experiment on IGROV-1; 0.0813 µM (active) in the experiment on UO-31; 0.000817 µM (active) in the experiment with M14; 0.00252 µM (active) in the experiment on OVCAR-8. Further, the concentration for 50% growth inhibition (GI50) in the experiment with NCI-H23 was 0.000715 µM (active); with KM12, 0.000449 µM (active); in the experiment with SK-OV-3, 0.00454 µM (active); with MCF7, 0.000257 µM (active); in the experiment with TK-10 it was 78.5 µM (inactive); with MDA-MB-231, 0.0004 µM (active).

Consider `Cn1c(=O)c2c(nc(Nc3ccc(Cl)cc3)n3c(=O)n(-c4ccccc4)c(=O)n23)n(C)c1=O`, for which the GI50 with OVCAR-5, in the experiment on OVCAR-4, in the experiment with HCC 2998, with SF-295, in the experiment on NCI-H522 and in the experiment with ACHN was > 100 µM (inactive) throughout. The GI50 in the experiment with OVCAR-3, in the experiment on MDA-MB-435, in the experiment on UACC-257, in the experiment on RPMI-8226, with IGROV-1 and with UO-31 was > 100 µM (inactive) each time. Moreover, the GI50 in the experiment with M14, with OVCAR-8, in the experiment with NCI-H23, in the experiment on KM12, with MCF7 and in the experiment on TK-10 was > 100 µM (inactive) in each case. Moreover, the GI50 with MDA-MB-231 is > 100 µM (inactive).

As for `[O-][S+](Nc1ccccc1)c1ccc(Cl)cc1` (stereo not drawn), the GI50 in the experiment on OVCAR-5 is > 100 µM (inactive); in the experiment on OVCAR-4, > 100 µM (inactive); in the experiment with HCC 2998, 69.7 µM (inactive); in the experiment on SF-295 it was > 100 µM (inactive); with NCI-H522, 73.3 µM (inactive); with ACHN, > 100 µM (inactive). In addition, the GI50 was > 100 µM (inactive) in the experiment on OVCAR-3; 31.4 µM (inactive) in the experiment on MDA-MB-435; > 100 µM (inactive) in the experiment on UACC-257; > 100 µM (inactive) in the experiment on RPMI-8226; 24.7 µM (inactive) in the experiment on IGROV-1; 44.8 µM (inactive) in the experiment on UO-31. Moreover, the GI50 in the experiment with M14 is > 100 µM (inactive); with OVCAR-8, > 100 µM (inactive); in the experiment with NCI-H23 it was > 100 µM (inactive); with KM12 it was 17.5 µM (inactive); with MCF7, > 100 µM (inactive); with TK-10, > 100 µM (inactive). The GI50 in the experiment on MDA-MB-231 is > 100 µM (inactive).

Consider `CC(=O)OC[C@H]1O[C@@H](O[C@H]2[C@H](OC(C)=O)C=CO[C@@H]2COC(C)=O)C(OC(C)=O)[C@H]2OC(C)(C)O[C@H]21` (stereo partly drawn), for which the GI50 with OVCAR-5 was > 100 µM (inactive); with OVCAR-4, > 100 µM (inactive); with HCC 2998, > 100 µM (inactive); in the experiment with SF-295, > 100 µM (inactive); in the experiment with NCI-H522, 17.1 µM (inactive); with ACHN, > 100 µM (inactive). The GI50 with OVCAR-3 is > 100 µM (inactive); in the experiment with MDA-MB-435, 48.1 µM (inactive); with UACC-257 it was > 100 µM (inactive); in the experiment with IGROV-1, > 100 µM (inactive); in the experiment on UO-31 it was > 100 µM (inactive); in the experiment with M14, > 100 µM (inactive). The GI50 with OVCAR-8, in the experiment on NCI-H23, in the experiment on KM12, in the experiment on SK-OV-3, in the experiment on MCF7 and in the experiment on TK-10 was > 100 µM (inactive) in each case. The GI50 in the experiment with MDA-MB-231 was > 100 µM (inactive).

As for `Cc1c(OCc2cccc3ccccc23)ccc2c(=O)cc(SCCN3CCOCC3)oc12`, the GI50 was 78.2 µM (inactive) in the experiment with OVCAR-5; 38.5 µM (inactive) with OVCAR-4; > 100 µM (inactive) in the experiment with HCC 2998; > 100 µM (inactive) in the experiment on SF-295; 90.6 µM (inactive) with NCI-H522; > 100 µM (inactive) with ACHN. In addition, the GI50 with OVCAR-3, in the experiment on MDA-MB-435, in the experiment on UACC-257, in the experiment with IGROV-1, in the experiment on UO-31 and in the experiment on M14 was > 100 µM (inactive) in each case. Moreover, the GI50 in the experiment with OVCAR-8, in the experiment on NCI-H23, in the experiment with KM12, with MCF7, with TK-10 and in the experiment on MDA-MB-231 was > 100 µM (inactive) each time.

For `Cc1ccc2c(c1)C=CC(C#N)N2C(=O)Oc1ccccc1` (stereo not drawn), the GI50 in the experiment on OVCAR-5 was 61.4 µM (inactive); in the experiment on OVCAR-4, 24.7 µM (inactive); in the experiment with HCC 2998, 16.6 µM (inactive); with NCI-H522, 16.3 µM (inactive); in the experiment with ACHN, 27 µM (inactive); with MDA-MB-435, 14.5 µM (inactive). For the same compound, the GI50 in the experiment with UACC-257 is 39.8 µM (inactive); in the experiment with RPMI-8226 it was 17.9 µM (inactive); in the experiment on IGROV-1 it was 36 µM (inactive); in the experiment with UO-31 it was 27.7 µM (inactive); in the experiment with M14, 40.8 µM (inactive); in the experiment on OVCAR-8, 17.4 µM (inactive). Moreover, the GI50 with NCI-H23 is 19.5 µM (inactive); in the experiment with KM12 it was 17.1 µM (inactive); in the experiment with MCF7, 19.7 µM (inactive); in the experiment with TK-10 it was 31 µM (inactive); in the experiment with MDA-MB-231, 38.9 µM (inactive).

Take `COc1ccc(-c2csc3c2-n2cccc2C3=O)cc1`: the GI50 with OVCAR-5 was 34 µM (inactive); in the experiment on OVCAR-4, 2.07 µM (inactive); in the experiment with HCC 2998, 0.344 µM (active); in the experiment on SF-295 it was 0.0395 µM (active); in the experiment on ACHN it was 0.805 µM (active); in the experiment with OVCAR-3 it was 0.0416 µM (active). Further, the GI50 with MDA-MB-435 is 0.0132 µM (active); with RPMI-8226, 0.0425 µM (active); in the experiment with IGROV-1 it was 0.258 µM (active); in the experiment on UO-31, 0.11 µM (active); in the experiment on M14, 0.0346 µM (active); in the experiment with OVCAR-8 it was 0.0867 µM (active). Moreover, the GI50 is 0.438 µM (active) with NCI-H23; 0.0401 µM (active) in the experiment on KM12; 0.216 µM (active) with SK-OV-3; 0.18 µM (active) with MCF7; < 0.0375 µM (active) with MDA-MB-231.

Regarding `O=C1N/C(=N/N=C/c2ccccc2)N/C1=C\c1c[nH]c2ccccc12`, the GI50 was > 100 µM (inactive) in the experiment on OVCAR-5; > 100 µM (inactive) in the experiment with OVCAR-4; > 100 µM (inactive) in the experiment with SF-295; 74.3 µM (inactive) in the experiment on NCI-H522; > 100 µM (inactive) in the experiment with ACHN; 49.7 µM (inactive) in the experiment with OVCAR-3. In addition, the GI50 in the experiment on MDA-MB-435 was > 100 µM (inactive); in the experiment with UACC-257, > 100 µM (inactive); in the experiment with RPMI-8226 it was 7.52 µM (inactive); in the experiment with IGROV-1 it was > 100 µM (inactive); with UO-31 it was 71.6 µM (inactive); in the experiment on M14, 71.6 µM (inactive). Also, the GI50 in the experiment on OVCAR-8 is 38.2 µM (inactive); with NCI-H23 it was 95.1 µM (inactive); in the experiment on KM12, 65 µM (inactive); in the experiment with SK-OV-3, > 100 µM (inactive); in the experiment with MCF7, 80.7 µM (inactive); in the experiment with TK-10, > 100 µM (inactive). In the experiment on MDA-MB-231, the GI50 was 42.9 µM (inactive).

Regarding `CCC(=O)C(CCN1CCC(N2C(=O)C(CCC#N)c3ccccc32)CC1)(c1ccccc1)c1ccccc1` (stereo not drawn), the GI50 is 22.3 µM (inactive) with OVCAR-5; 12.4 µM (inactive) with HCC 2998; 13.3 µM (inactive) in the experiment on SF-295; 12.7 µM (inactive) with NCI-H522; 15.9 µM (inactive) in the experiment on ACHN; 10.9 µM (inactive) in the experiment on OVCAR-3. Besides, the GI50 in the experiment on MDA-MB-435 was 4.85 µM (inactive); in the experiment on UACC-257 it was 13 µM (inactive); with RPMI-8226, 4.17 µM (inactive); with IGROV-1, 14.6 µM (inactive); in the experiment on UO-31, 9.53 µM (inactive); with M14, 10.1 µM (inactive). In addition, the GI50 is 11.4 µM (inactive) in the experiment on OVCAR-8; 18.2 µM (inactive) in the experiment on NCI-H23; 13.4 µM (inactive) in the experiment on KM12; 15.5 µM (inactive) with SK-OV-3; 11.5 µM (inactive) in the experiment with MCF7; 12.5 µM (inactive) with TK-10. The GI50 in the experiment on MDA-MB-231 was 7.36 µM (inactive).
